From patent US20100325754A1, “Compositions and methods for modulating oxidative burst in plant transformation” (Syngenta Participations AG, priority 2009, published 2010)

Experiments:
[1] = tested on: MicroTom tomato cotyledon explants; assay: Frequency of independent stable transgenic events and escapes in Agrobacterium-mediated MicroTom transformation (GUS staining)
Description: Sterilize MicroTom tomato seeds: (2.1 grams (g) of MicroTom tomato seeds, which equals approximately 900 seeds; supplied by Ball Horticultural Company, Chicago, Ill., USA. • add approximately 900 seeds to a sterile 250 milliliter (ml) flask • soak for 10 minutes (min) in the sterile 250 ml flask with ˜100 ml sterile double deionized (dd) water and then pour off the water. • add 100 ml of 70% ethanol to immerse the seeds for 1 min while stirring vigorously, pour off the ethanol, rinse the seeds 2 times with sterile dd water. • soak the seeds in 100 ml of 25% Chlorine bleach solution (chlorine bleach available under the registered trademark CLOROX®) with 3 drops of TWEEN™ 20 detergent for 10 min while stirring frequently, rinse the seeds three times with sterile dd water. • the seeds are germinated in MAGENTA™ box (available from bio-WORLD, Dublin, Ohio, United States of America) or culture box containing TGM medium (approximately 70 seeds/container), and the MAGENTA™ boxes are placed in a plastic box that is wiped down with 70% ethanol. The box cultures are placed in a dark incubator at 27° C. under the dark for 6 days (d). Seeds are distributed evenly and closely in the MAGENTA™ box, and pressed down on the media surface when placing the seeds on the germination medium.
Construct Information: The construct used in transformation contains a CaMV 35S promoter driving GUS (with GUS intron) and Nos promoter driving NPTII in Bin 19 binary vector (Frisch et al., 1995, Plant Molecular Biology 27:405-409). Agrobacterium tumefaciens strain EHA101 is used for transformation.
150 microliters (μl) of Vector 1 glycerol stock from −80° C. are placed on a fresh Luria Broth (LB)/rifampicin 50 microgram (μg)/ml/kanamycin 50 μg/ml plate on Friday of the week before transformation experiment, grown at about 28° C. for 3-4 d and stored in the refrigerator (4° C.) for the rest of the week. One day before inoculation, between 1:00 to 2:00 pm, a loopful of the bacterium cells from the freshly streaked plate is inoculated into 2 ml of liquid LB/rifampicin 50 μg/ml/kanamycin 50 μg/ml in a 17×100 Falcon tube, and grown at 28 C.° with 230 revolutions per minute (rpm) shaking. The next morning between 8:00 to 9:00 am, 0.2 ml of the overnight bacterium culture is inoculated into 2 ml of plain LB+0.2 millimeter (mM) acetosyringone in a 17×100 mm Falcon tube, and grown at about 28° C. with 230 rpm for 4 h.
Day 7 at about 2:00 pm. • 1) Cotyledon explants are isolated from seedlings 6 d after sowing seeds on TGM medium. • 2) About 25 cotyledon explants are prepared at a time by bathing them in a sterile petri dish plate containing 6 ml of Fillatti's suspension medium (FSM) liquid medium to prevent desiccation and trimming them at both ends using a #15 feather blade. Note: it is desirable to use the cotyledons that make a fairly tight “V” shape (two cotyledons that are at closed shape are acceptable to be used). • 3) Immediately after the trimming, the 25 cotyledon explants are gently placed on “feeder plates”—TCM medium. The “feeder plates” are made by overlaying 2 ml of tobacco suspension cells and a sterile WHATMAN™ filter (No. 1, Cat No. 1001090, VWR; Whatman Inc., Florham Park, N.J., United States of America) on the plates containing TCM medium. • 4) Cotyledon explants are gently poked with a sharp forceps and usually six pokes are made per explant. It is desirable that the sharp forceps gently touch the surface of explants and then make a slight movement on the touched surface in order to have a larger and shallower wounding surface that results in good transient expression. • 5) Right after poking, the cotyledons are inoculated with Agrobacterium by adding 3 ml of the Agrobacterium solution (OD600=0.1) suspended in FSM liquid medium to the top of cotyledons. The plates are incubated for 10 min at room temperature and the Agrobacterium solution is aspirated with a sterile pipette.

rice calli (Nipponbare) = assay: Rice stable callus transformation efficiency; type: cell-based; details: co-cultivation and recovery media
Description: • 1. […] Check for any off-type seeds and discard these. • 2. Surface sterilize seeds in a 50 ml sterile tube with 70% ethanol for 1 to 2 min with shaking (ethanol treatment step is optional). • 3. Remove ethanol. • 4. Add 50% (v/v) CLOROX® bleach (2.4% Na hypochlorite) or 40% (v/v) ULTRA CLOROX® (˜3.2% Na hypochlorite) and one drop of TWEEN™-20 detergent, shake for 30-40 min on a shaker at 100-200 rpm. • 5. Remove CLOROX® solution and rinse with sterile water at least three times, until all sign of TWEEN™-20 detergent (soap bubbles) is gone. • 6. Seeds are ready to plate on sterile medium. • 7. Check for bacterial and fungal contaminations at 3 and 5 days later, respectively.
• 1. Soak sterilized seeds in sterile water for 1-2 d until fully imbibed (optional step) • 2. Plate pre-soaked or sterilized mature seeds onto rice callus induction medium (MS-CIM) at 12 seeds per plate. Culture in dark at 28° C. for 6 d prior to inoculation or for 4 weeks (wks) for production of embryogenic cultures. • 3. At 4 wks, selectively excise high quality target material and transfer to MS-CIM at 25 pieces per plate. Culture in dark for 8 d at 28° C. before inoculation.
• 1. If possible, choose bacteria from the area of the plate where there are many individual single colonies of bacteria growing for inoculation. Transfer ˜7 inoculation loops full of Agrobacterium culture to a 50 ml sterile plastic tube containing 20 ml liquid MS media with acetosyringone (As) added to 200 μM (add 1 μl As stock at 40 mg/ml per ml of suspension). Vortex to completely dissolve bacteria in liquid and bring volume to 50 ml. • 2. Measure the Agrobacterium suspension OD at 660 nm. Dilute the culture to an OD660 of 0.2-0.3 (higher concentrations can offer higher transformation frequencies but can cause damage/browning in some cultivars). Induce the bacteria with acetosyringone for at least 30 min. • 3. Inoculate cultured rice seeds or rice embryogenic culture responses by immersing target material in the bacterial suspension for 30 min. • 4. Try to make sure that all target pieces are completely immersed in the bacterial solution and shake regularly to ensure that this continues to be the case. • 5.
Transfer the inoculated seeds/cultures to multiple shoot-acetosyringone (MS-As) co-cultivation medium with sterile 85 mm filter paper. Each filter paper is wetted with 1 ml of MSInoc (see recipe below) liquid media with the concentrations of MT (in μM) listed below. Fifty (50) pieces per plate; incubate at 22° C. for 3 d. • A: Filter Paper • B: Filter Paper 2MT • C: Filter Paper 10MT • D: Filter Paper 100MT • E: Filter Paper 300MT • F: Filter Paper 1000MT
• 1. After ˜36 hours of co-cultivation, transfer the co-cultivated seeds/responses to Agrobacterium inhibition medium MS-400Tim (see recipe below) (1 plate→1 plate). Culture in the dark at 28° C. for ˜7 days. • 2. Score the scorable marker control plate for gene delivery efficiency at 4 to 5 days after co-cultivation • A: Recovery Media • B: Recovery Media+2MT • C: Recovery Media+10MT • D: Recovery Media+100MT • E: Recovery Media+300MT • F: Recovery Media+1000MT
• 1. Transfer calli to selection medium (17.5 g/l mannose/5 g/l sucrose). Culture in dark at ˜28° C. for 2 to 3 weeks, observing periodically for colony proliferation and contamination. • 2. Select mannose resistant embryogenic micro-colonies under microscope when proliferating colonies are big enough to grow independently, but not so big that they have begun to grow together. […]

[2] = tested on: MicroTom tomato cotyledons; assay: Tissue extreme browning of MicroTom tomato cotyledon explants after Agrobacterium inoculation; type: cell-based, Solanum lycopersicum (tomato); details: for Extreme Browning Rate: 3 days after selection
Text: For tissue browning and transient expression data collection, 3 d after selection cotyledon explant data are collected for tissue browning under a dissecting microscope, and then for transient expression by GUS staining.

[3] = tested on: soybean immature seed explants; assay: Soybean transformation frequency (TAQMAN positive plants); type: cell-based, Soybean (Glycine max, Jack); details: transgenic plants after rooting
[4] = N-t-butyl hydroxylamine 10 μM, 4 weeks after selection
[5] = N-t-butyl hydroxylamine 50 μM, 4 weeks after selection
[6] = N-t-butyl hydroxylamine 100 μM, 4 weeks after selection
[7] = epicatechin 50 mg/l, 6 weeks after selection
[8] = epicatechin 100 mg/l, 6 weeks after selection
[9] = epicatechin 1000 mg/l, 6 weeks after selection
[10] = resveratrol 50 μM, 6 weeks after selection
[11] = resveratrol 100 μM, 6 weeks after selection
[12] = resveratrol 200 μM, 6 weeks after selection

**Q.** For CC(C)(C)NO [N-t-butyl hydroxylamine], which “reduction of frequency of escapes compared with the negative control” value ([1]; N-t-butyl hydroxylamine 10 μM) is on record?
**A.** Its value is 2.5 fold.

**Q.** And the Frequency of escapes [1, 4]?
**A.** The Frequency of escapes was 4.4 ± 5.1%.

**Q.** What about the “Frequency of independent stable transgenic events” value [1, 4] of the same compound?
**A.** Its value is 245.6 ± 44.0 A %.

**Q.** And the Frequency of escapes [1, 5]?
**A.** The Frequency of escapes was 6.7 ± 3.3%.

**Q.** What about the “Frequency of independent stable transgenic events” value [1, 5] of the same compound?
**A.** Its value is 222.2 ± 9.6 AB %.

**Q.** And the Frequency of escapes [1, 6]?
**A.** Its Frequency of escapes is 8.9 ± 1.9%.

**Q.** What about the “Frequency of independent stable transgenic events” value [1, 6] of the same compound?
**A.** Its value is 205.6 ± 10.2 AB %.

**Q.** Which results are given for Oc1cc(O)c2c(c1)O[C@H](c1ccc(O)c(O)c1)[C@H](O)C2 [Epicatechin, epicatechin]?
**A.** Frequency of escapes [1, 7]: 1.7 ± 2.4%; Frequency of independent stable transgenic events [1, 7]: 418.3 ± 25.9 B %; Frequency of escapes [1, 8]: 0.0 ± 0.0%; Frequency of independent stable transgenic events [1, 8]: 521.7 ± 16.5 A %; Frequency of escapes ([1]; epicatechin 100 mg/l, 6 weeks after selection, listed as epicatechin): 0%; toxicity to plant tissues (inferred from reduced stable transformation frequency) ([1]; epicatechin 1000 mg/l): might be toxic to plant tissues at that concentration; Frequency of escapes [1, 9]: 1.7 ± 2.4%; Frequency of independent stable transgenic events [1, 9]: 51.7 ± 2.4 D %

**Q.** Which results are given for COc1ccc2[nH]cc(CCNC(C)=O)c2c1 [melatonin, N-Acetyl-5-methoxytryptamine]?
**A.** Frequency of escapes ([1]; melatonin 10 μM, 4 weeks after selection): 1.7 ± 0.0%; Frequency of independent stable transgenic events ([1]; melatonin 10 μM, 4 weeks after selection, Table 5): 214.4% ± 6.2 A; Frequency of escapes ([1]; melatonin 50 μM, 4 weeks after selection): 0.0 ± 0.0%; Frequency of independent stable transgenic events ([1]; melatonin 50 μM, 4 weeks after selection, Table 5): 221.3% ± 47.7 A; Frequency of escapes ([1]; melatonin 100 μM, 4 weeks after selection): 0.0 ± 0.0%; Frequency of independent stable transgenic events ([1]; melatonin 100 μM, 4 weeks after selection, Table 5): 229.4% ± 55.7 A; Frequency of independent stable transgenic events ([1]; melatonin 100 μM, 4 weeks after selection, Table 6 (second set)): 213.3% ± 75.4 A; Frequency of independent stable transgenic events ([1]; melatonin 500 μM, 4 weeks after selection, Table 6): 121.7% ± 1.7 B; Frequency of independent stable transgenic events ([1]; melatonin 1000 μM, 4 weeks after selection, Table 6): 80.0% ± 14.1 B; frequency of independent stable transgenic events, increased to ([1]; melatonin at 10, 50 and 100 μM, from 88% in negative control without melatonin): 229%; % of stable callus sectors (rice calli (Nipponbare); melatonin 2 μM in inoculation, transgenic callus after selection, 50 explants): 148.0%; % of stable callus sectors (rice calli (Nipponbare); melatonin 10 μM in inoculation, after selection): 156.0%; % of stable callus sectors (rice calli (Nipponbare); melatonin 100 μM in inoculation, after selection): 140.0%; % of stable callus sectors (rice calli (Nipponbare); melatonin 300 μM in inoculation, after selection): 140.0%; % of stable callus sectors (rice calli (Nipponbare); melatonin 1000 μM in inoculation, after selection): 86.0%; Extreme Browning Rate ([2]; 10 μM melatonin in selection stage media, percentage of pokes with browning area ≧70%, Table 3): 21.5%; tissue browning reduced, compared to the negative control ([2]; 10 μM melatonin in transformation media): 3.0 fold; Extreme Browning Rate ([2]; 50 μM melatonin in selection stage media, Table 3): 11.8%; tissue browning reduced, compared to the negative control ([2]; 50 μM melatonin in transformation media): 5.5 fold; Extreme Browning Rate ([2]; 100 μM melatonin in selection stage media, Table 3 (first set)): 6.4%; tissue browning reduced, compared to the negative control ([2]; 100 μM melatonin in transformation media): 10.2 fold; Extreme Browning Rate ([2]; 100 μM melatonin, Table 4 (second set)): 22.2%; Extreme Browning Rate ([2]; 500 μM melatonin, Table 4): 21.0%; Extreme Browning Rate ([2]; 1000 μM melatonin, Table 4): 50.6%; Transformation frequency ([3]; melatonin 1 μM in infection and co-cultivation media, glyphosate selection): 7.6% +; Transformation frequency ([3]; melatonin 10 μM in infection and co-cultivation media): 7.5% +; Transformation frequency ([3]; melatonin 100 μM in infection and co-cultivation media): 4.5% +

**Q.** Which Frequency of escapes [1, 10] does the source give for Oc1ccc(C=Cc2cc(O)cc(O)c2)cc1 [Resveratrol, resveratrol] here?
**A.** Its Frequency of escapes is 4.4 ± 7.7%.

**Q.** And the “Frequency of independent stable transgenic events” value [1, 10]?
**A.** Its value is 297.8 ± 24.6 B %.

**Q.** What about the “reduction of escapes compared with the negative control” value ([1]; resveratrol 100 μM) of the same compound?
**A.** The value was 5 fold.

**Q.** And the Frequency of escapes [1, 11]?
**A.** Its Frequency of escapes is 1.1 ± 1.9%.

**Q.** And the “Frequency of independent stable transgenic events” value [1, 11]?
**A.** Its value is 356.7 ± 10.0 A %.

**Q.** And the Frequency of escapes [1, 12]?
**A.** The Frequency of escapes was 1.1 ± 1.9%.

**Q.** What about the “Frequency of independent stable transgenic events” value [1, 12] of the same compound?
**A.** The value was 227.8 ± 17.1 C %.
